How the values were obtained:
Assay type in all cases: biochemical
[1] = target: T1, human VEGFR-2 (Val789-Val1356) (Homo sapiens, UniProt P35968); assay: KDR kinase assay (HTScan VEGFR-2 kit, DELFIA); details: for inhibition at 0.1 µM: compound at 0.1 μM, read-out: KDR 0.1 μM, % of inhibition relative to control; for inhibition at 1 µM: compound at 1 μM, read-out: KDR 1 μM, % of inhibition relative to control
T1 construct: human VEGFR-2 (Val789-Val1356); GST (N); purchased Cell Signaling Technology; host or cells: baculovirus expression system
Experimental: (§1) Compounds 1-100 were treated for their efficacy in inhibiting activities of FLT-3, c-KIT, KDR/Flk-1, PDGFR-beta, EGFR, and PKC kinases by biochemical DELFIA (Dissociation Enhanced Lanthanide FIA) assays according to the procedure described below. The assays were conducted by, Division of Cell Engineering, Biomedical Engineering Research Laboratories, Industrial Technology Research Institute, Bldg. 53, 195, sec. 4, Chung Hsing Rd. Chutung, Hsinchu, Taiwan 310, R.O.C.
(§2) The KDR assay was conducted following the protocol described in Protocol for HTScan® VEGFR-2 Kinase Assay Kit (Cell Signaling Technology®). The assay was conducted under the following conditions: KDR source: The GST-Kinase fusion protein was produced using a baculovirus expression system with a construct expressing human VEGFR-2 (Val789-Val1356) (GenBank Accession No. NM_002253) with an amino-terminal GST tag, substrate: 1.5 μM Gastrin Precursor Biotinylated Peptide (with Tyr87 as phosphorylation site), vehicle: 1% DMSO, pre-incubation time/temperature: 5 minutes at room temperature, incubation time/temperature: 30 minutes at room temperature, incubation buffer: 60 mM HEPES pH 7.5, 5 mM MgCl2, 5 mM MnCl2, 3 μM Na3VO4, 1.25 mM DTT, 20 μM ATP, and quantitative method: DELFIA® Assay.

[2] = target: T2, human FLT-3 (Arg571-Ser993) (Homo sapiens, UniProt P36888); assay: FLT-3 kinase assay (HTScan kit, DELFIA); details: for inhibition at 0.1 µM: compound at 0.1 μM, read-out: FLT-3 0.1 μM, % of inhibition relative to control; for inhibition at 1 µM: compound at 1 μM, read-out: FLT-3 1 μM, % of inhibition relative to control; for IC50: read-out: FLT-3 kinase inhibition (IC50)
T2 construct: human FLT-3 (Arg571-Ser993); GST (N); purchased Cell Signaling Technology; host or cells: baculovirus expression system
T2 sequence (P36888 571-993): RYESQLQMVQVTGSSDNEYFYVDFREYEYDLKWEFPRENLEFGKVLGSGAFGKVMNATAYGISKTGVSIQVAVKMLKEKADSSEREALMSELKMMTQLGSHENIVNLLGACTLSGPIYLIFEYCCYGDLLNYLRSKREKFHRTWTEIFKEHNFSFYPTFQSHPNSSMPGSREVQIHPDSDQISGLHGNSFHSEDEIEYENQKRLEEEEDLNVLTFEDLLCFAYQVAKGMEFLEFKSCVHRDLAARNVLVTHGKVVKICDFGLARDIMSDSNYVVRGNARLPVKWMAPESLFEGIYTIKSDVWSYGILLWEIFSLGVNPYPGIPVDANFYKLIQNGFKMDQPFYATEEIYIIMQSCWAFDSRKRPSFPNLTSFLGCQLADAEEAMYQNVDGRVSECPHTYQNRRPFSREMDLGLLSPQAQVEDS
Experimental: as §1
as §2, with “FLT-3” for “KDR”, “FLT-3” for “VEGFR-2”, “GST-kinase” for “GST-Kinase”, “FLT-3 (Arg571-Ser993)” for “VEGFR-2 (Val789-Val1356)”, “accession” for “Accession”, “NM_004119)” for “NM_002253)”

[3] = target: T3, human c-KIT (Thr544-Val976) (Homo sapiens, UniProt P10721); assay: c-KIT kinase assay (HTScan kit, DELFIA); details: for inhibition at 0.1 µM: compound at 0.1 μM, read-out: c-KIT 0.1 μM, % of inhibition relative to control; for inhibition at 1 µM: compound at 1 μM, read-out: c-KIT 1 μM, % of inhibition relative to control; for IC50: read-out: c-KIT kinase inhibition (IC50)
T3 construct: human c-KIT (Thr544-Val976); GST (N); purchased Cell Signaling Technology; host or cells: baculovirus expression system
Experimental: as §1
as §2, with “c-KIT” for “KDR”, “c-KIT” for “VEGFR-2”, “GST-c-KIT” for “GST-Kinase”, “c-KIT (Thr544-Val976)” for “VEGFR-2 (Val789-Val1356) (GenBank Accession No. NM_002253)”, “This biotinylated peptide contains the residues surrounding Tyr-996 of KDR,” for “Gastrin Precursor Biotinylated Peptide (with Tyr87 as phosphorylation site),”

T3 sequence (P10721 544-976): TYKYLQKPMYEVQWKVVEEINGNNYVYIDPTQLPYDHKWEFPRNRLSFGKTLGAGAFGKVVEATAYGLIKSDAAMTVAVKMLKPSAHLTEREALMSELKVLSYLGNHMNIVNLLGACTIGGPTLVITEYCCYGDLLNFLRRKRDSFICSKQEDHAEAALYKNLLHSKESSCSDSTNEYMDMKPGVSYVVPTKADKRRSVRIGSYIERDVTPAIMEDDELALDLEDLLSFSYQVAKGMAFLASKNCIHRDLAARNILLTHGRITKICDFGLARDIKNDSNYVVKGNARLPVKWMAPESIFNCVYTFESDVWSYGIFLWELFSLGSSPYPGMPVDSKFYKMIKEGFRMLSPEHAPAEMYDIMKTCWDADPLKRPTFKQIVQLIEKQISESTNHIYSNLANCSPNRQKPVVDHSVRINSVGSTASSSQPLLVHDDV
T1 sequence (P35968 789-1356): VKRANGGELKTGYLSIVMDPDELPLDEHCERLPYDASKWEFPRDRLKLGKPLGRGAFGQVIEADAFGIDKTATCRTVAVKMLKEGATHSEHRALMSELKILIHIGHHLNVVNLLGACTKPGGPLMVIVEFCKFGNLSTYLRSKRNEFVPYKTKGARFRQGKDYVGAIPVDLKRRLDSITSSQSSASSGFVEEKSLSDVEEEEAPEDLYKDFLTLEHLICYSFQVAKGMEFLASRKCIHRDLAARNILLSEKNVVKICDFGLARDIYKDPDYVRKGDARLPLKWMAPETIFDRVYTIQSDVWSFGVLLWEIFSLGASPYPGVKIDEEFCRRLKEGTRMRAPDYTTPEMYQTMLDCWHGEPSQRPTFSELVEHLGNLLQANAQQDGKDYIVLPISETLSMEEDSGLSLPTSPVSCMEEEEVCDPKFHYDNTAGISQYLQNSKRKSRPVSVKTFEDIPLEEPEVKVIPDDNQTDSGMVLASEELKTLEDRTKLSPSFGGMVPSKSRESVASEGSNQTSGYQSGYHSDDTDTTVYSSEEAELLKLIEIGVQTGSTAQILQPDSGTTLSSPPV

| SMILES | inhibition at 0.1 µM [1] | inhibition at 1 µM [1] | inhibition at 0.1 µM [2] | inhibition at 1 µM [2] | inhibition at 0.1 µM [3] | inhibition at 1 µM [3] | IC50 [2] | IC50 [3] | IC50 ([1]; read-out: KDR kinase inhibition (IC50)) |
| --- | --- | --- | --- | --- | --- | --- | --- | --- | --- |
| Cc1cc(C=C2C(=O)Nc3ccc(F)cc32)c2ccccc(OCCCN3CCN(C)CC3)c1-2 [Compound 96, 5-Fluoro-3-{3-methyl-4-[3-(4-methyl-piperazin-1-yl)-propoxy]-azulen-1-ylmethylene}-1,3-dihydro-indol-2-one] | 29.3% | 89.8% | 68.9% | 97.2% | 58% | 58% |  |  |  |
| Cc1cc(C=C2C(=O)Nc3cc(F)ccc32)c2ccccc(OCCCN(C)C)c1-2 [Compound 91, 3-[4-(3-Dimethylamino-propoxy)-3-methyl-azulen-1-ylmethylene]-6-fluoro-1,3-dihydro-indol-2-one] | 1.1% | 9.4% | 15.2% | 52.4% | 56.5% | 56.5% |  |  |  |
| Nc1cc2cccccc-2c1C=C1C(=O)Nc2ccc(F)cc21 [Compound 64, 3-(2-Amino-azulen-1-ylmethylene)-5-fluoro-1,3-dihydro-indol-2-one] | 46.5% | 47.8% | 68.3% | 74.9% | 34.2% | 34.2% |  |  |  |
| CCN(CC)CCCOc1ccccc2c(C=C3C(=O)Nc4ccc(F)cc43)cc(C)c1-2 [Compound 90, 3-[4-(3-Diethylamino-propoxy)-3-methyl-azulen-1-ylmethylene]-5-fluoro-1,3-dihydro-indol-2-one] |  | 32.8% | 33.9% | 85.5% | 83.2% | 83.2% | 10.1 nM | 77.9 nM |  |
| Cc1ccc2c(c1)/C(=C\c1c3cccccc-3nc1N)C(=O)N2 [Compound 54, 3-(2-Amino-cyclohepta[b]pyrrol-3-ylmethylene)-5-methyl-1,3-dihydro-indol-2-one] | 17% | 25.7% | 33.3% | 52.5% | 27.5% | 27.5% |  |  |  |
| Cc1cc(/C=C2/C(=O)Nc3ccc(F)cc32)c2ccccc(OCCCN(C)C)c1-2 [Compound 68, 3-[4-(3-Dimethylamino-propoxy)-3-methyl-azulen-1-ylmethylene]-5-fluoro-1,3-dihydro-indol-2-one] | 38.6% | 63.8% | 74.3% | 96.8% | 34.4% | 34.4% | 25.3 nM | > 1000 nM | 500 nM |
| CC(C)c1cc(C=C2C(=O)Nc3ccc(F)cc32)c2cccccc1-2 [Compound 81, 5-Fluoro-3-(3-isopropyl-azulen-1-ylmethylene)-1,3-dihydro-indol-2-one] | 33% | 36.6% | 19.1% | 43.5% | 48.7% | 48.7% |  |  |  |
| Cc1cc(C=C2C(=O)Nc3ccccc32)c2ccccc(OCCCN(C)C)c1-2 [Compound 98, 3-[4-(3-Dimethylamino-propoxy)-3-methyl-azulen-1-ylmethylene]-1,3-dihydro-indol-2-one] | 38.6% | 80.3% | 46.1% | 85.4% | 60.4% | 60.4% |  |  |  |
| Cc1cc(C=C2C(=O)Nc3cc(C(F)(F)F)ccc32)c2ccccc(OCCCN(C)C)c1-2 [Compound 94, 3-[4-(3-Dimethylamino-propoxy)-3-methyl-azulen-1-ylmethylene]-6-trifluoromethyl-1,3-dihydro-indol-2-one] | 35.8% | 52.4% | 6.5% | 14.4% | 47.6% | 47.6% |  |  |  |
| O=C1Nc2cc(Br)ccc2/C1=C/c1ccc2cccccc1-2 [Compound 29, 3-Azulen-1-ylmethylene-6-bromo-1,3-dihydro-indol-2-one] | 18.5% | 48.2% |  | 53.3% | 46.1% | 46.1% |  |  |  |
| CN(C)Cc1cc(/C=C2/C(=O)Nc3ccccc32)c2cccccc1-2 [Compound 58, 3-(3-Dimethylaminomethyl-azulen-1-ylmethylene)-1,3-dihydro-indol-2-one] | 12.1% | 23.8% | 16.5% | 43.9% | 18% | 18% |  |  |  |
| CCOC(=O)N1CCC(Nc2ccc3c(c2)NC(=O)/C3=C/c2cc(C)c3c(OCCCN(C)C)ccccc2-3)CC1 [Compound 97, 4-{3-[4-(3-Dimethylamino-propoxy)-3-methyl-azulen-1-ylmethylene]-2-oxo-2,3-dihydro-1H-indol-6-ylamino}-piperidine-1-carboxylic acid ethyl ester] | 30.5% | 41.8% | 19.1% | 23.9% | 30.6% | 30.6% |  |  |  |
| CCOC(=O)N1CCC(Nc2ccc3c(c2)/C(=C\c2cc(C)c4c(OCCCN(C)C)ccccc2-4)C(=O)N3)CC1 [Compound 85, 4-{3-[4-(3-Dimethylamino-propoxy)-3-methyl-azulen-1-ylmethylene]-2-oxo-2,3-dihydro-1H-indol-5-ylamino}-piperidine-1-carboxylic acid ethyl ester] |  | 4.4% |  | 2% | 2.4% | 2.4% |  |  |  |
| O=C1Nc2ccc(F)cc2/C1=C/c1c(Br)c2cccccc-2c1Br [Compound 61, 3-(1,3-Dibromo-azulen-2-ylmethylene)-5-fluoro-1,3-dihydro-indol-2-one] | 44.2% | 52.6% | 62.5% | 42.5% | 30.5% | 30.5% |  |  |  |
| Cc1cc(C=C2C(=O)Nc3ccc(C(F)(F)F)cc32)c2ccccc(OCCCN(C)C)c1-2 [Compound 100, 3-[4-(3-Dimethylamino-propoxy)-3-methyl-azulen-1-ylmethylene]-5-trifluoromethyl-1,3-dihydro-indol-2-one] | 33.3% | 73.2% | 64.9% | 89.1% | 48.1% | 48.1% |  |  |  |

From patent publication US7714146B2, “Azulene-oxindole compounds as multiple-kinase inhibitors and useful as anticancer agents” (Industrial Technology Research Institute, priority 2006, dated 2010)
